Measured values taken from paper PMC7370187, “Screening of an Epigenetic Drug Library Identifies 4-((hydroxyamino)carbonyl)-N-(2-hydroxyethyl)-N-Phenyl-Benzeneacetamide that Reduces Melanin Synthesis by Inhibiting Tyrosinase Activity Independently of Epigenetic Mechanisms” (International Journal of Molecular Sciences, 2020).

What was measured:
[1] = system: TYR, TYRP1, DCT and MITF protein in B16-F10 cells; assay: Western blotting of melanogenic proteins; type: cell-based, murine; conditions: 100 nM α-MSH, 24 h, β-actin loading control
Protocol: Western blotting was performed as previously described. Primary antibodies for TYR (#127217) was purchased from MyBioSource (San Diego, CA, USA). Primary antibodies for TYRP1 (#10443) and β-actin (#47778) were purchased from Santa Cruz Biotechnology (Santa Cruz, CA, USA). Primary antibodies for MITF (#20663) and DCT (#74073) were purchased from Abcam (Cambridge, UK). Anti-rabbit IgG (#2357) and anti-goat IgG (#2020) secondary antibodies were purchased from Santa Cruz Biotechnology. Anti-mouse IgG (#7076) secondary antibody was purchased from Cell Signaling Technology (Danvers, MA, USA). Each antibody was diluted 1 to 1000 in antibody dilution buffer containing 20 mM Tris-Cl (pH 7.5), 200 mM NaCl and 5% skim milk.
After B16-F10 cells were treated with drug and/or α-MSH, whole-cell lysates were prepared using a lysis buffer (pH 7.2) consisting of 10 mM Tris-Cl (pH 7.4), 120 mM NaCl, 25 mM KCl, 2 mM EGTA, 1 mM EDTA, 0.5% Triton X-100 and a protease inhibitor cocktail (Roche, Mannheim, Germany) for foe evaluation of TYR, TYRP1, and DCT. For MITF extraction, cells were extracted with RIPA buffer consisting of 25 mM Tris-HCl (pH 7.6), 150 mM NaCl, 1% NP-40, 1% sodium deoxycholate, 0.1% SDS and protease inhibitor cocktail. Proteins were denatured in the Laemmli sample buffer by heating at 95 °C for 5 min and separated by 7.5% SDS-PAGE gel. Proteins were transferred to a polyvinylidene difluoride membrane (Amersham Pharmacia, Little Chalfont, UK). The membrane was incubated with a primary antibody solution at 4 °C overnight, followed by incubation with a solution of a secondary antibody conjugated to horseradish peroxidase at room temperature for 1 h. The target protein bands were detected by a chemiluminescence method using a picoEPD Western Reagent kit (ELPIS-Biotech, Daejeon, Korea). The blots were analyzed using the NIH Image J program.

[2] = Copper chelating activity assay (pyrocatechol violet); type: physicochemical; conditions: 200 μM test compound, 200 μM copper ions, 200 μM pyrocatechol violet, absorbance 632 nm
Protocol: Copper chelating activity was determined by using pyrocatechol violet (Sigma-Aldrich). […] The reaction mixture containing a potential chelator at varied concentrations, 200 μM CuSO4, and 200 μM pyrocatechol violet was incubated at 25 °C for 20 min, and its absorption spectra were recorded using a Shimadzu UV-1650PC spectrophotometer (Shimadzu Corporation, Kyoto, Japan). Copper chelating activity was evaluated by the change in the absorbance of pyrocatechol violet at 632 nm.

[3] = target: T1, human TYR (Homo sapiens, UniProt P14679); assay: In vitro TYR catalytic activity assay, lysate of HEK293-TYR cells; type: biochemical
T1 construct: expressed in transfected cells; Triton X-100 lysate supernatant
T1 sequence (P14679 19-529): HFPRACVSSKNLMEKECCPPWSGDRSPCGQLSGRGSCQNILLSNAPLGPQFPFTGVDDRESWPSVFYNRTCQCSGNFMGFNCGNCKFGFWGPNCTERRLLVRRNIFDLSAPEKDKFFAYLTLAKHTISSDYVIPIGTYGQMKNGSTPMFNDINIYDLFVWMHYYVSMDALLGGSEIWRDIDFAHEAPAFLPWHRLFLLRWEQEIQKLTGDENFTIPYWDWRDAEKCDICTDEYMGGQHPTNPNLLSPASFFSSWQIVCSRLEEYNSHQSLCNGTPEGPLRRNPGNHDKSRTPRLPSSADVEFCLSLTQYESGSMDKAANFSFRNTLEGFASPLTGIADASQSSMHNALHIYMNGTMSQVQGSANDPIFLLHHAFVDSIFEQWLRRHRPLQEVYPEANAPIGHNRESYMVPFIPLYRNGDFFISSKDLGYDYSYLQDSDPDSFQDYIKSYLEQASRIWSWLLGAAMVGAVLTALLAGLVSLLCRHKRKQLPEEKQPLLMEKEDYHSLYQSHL
Protocol: To examine the direct effect of a drug on the catalytic activity of TYR, in vitro experiments were undertaken. Lysate of B16F10 cells stimulated with α-MSH for 24 h was used as a murine TYR preparation. Human TYR preparation was the lysate of human embryonic kidney 293 cells constitutively expressing human TYR (HEK293-TYR). […] The TYR activity assay mixture (200 μL) consisted of 100 mM sodium phosphate buffer (pH 6.8), TYR preparation (40 μg protein), a drug at various concentrations, 1.0 mM L-tyrosine, and 42 μΜ L-DOPA. For enzyme kinetic study, the concentrations of L-tyrosine plus L-DOPA were varied while their relative ratio was kept the same as the standard assay condition. […] The reactions were also performed in the absence of a TYR preparation to correct for the effects of non-enzymatic reactions. Enzyme activity was calculated as follows: activity (% control) = (C−D)/(A−B) × 100, where A and B are the absorbance changes of the control group with and without enzyme, respectively, while C and D are the absorbance changes of the test group with and without enzyme, respectively.

[4] = system: B16-F10 cells; assay: Melanin content assay (extracellular and intracellular); type: cell-based, murine; conditions: K8 1–10 µM, 100 nM α-MSH
Protocol: The intracellular melanin retained in cells and extracellular melanin secreted from cells were separately determined. B16-F10 cells were plated in 6-well plates (1.2 × 10^4 cells per well), cultured for 24 h, treated with a test drug at various concentrations for 60 min, and stimulated with 100 nM α-MSH for 72 h. The conditioned medium was evaluated to determine the extracellular melanin content. Adherent cells were extracted with 10% dimethyl sulfoxide solution containing 1.0 M sodium hydroxide at 60 °C for 60 min, and melanin content in the extract was estimated by measuring the absorbance at 400 nm and normalized to the total protein content of the cells.

O=C(NO)c1ccc(CC(=O)N(CCO)c2ccccc2)cc1 [K8, 4-((hydroxyamino)carbonyl)-N-(2-hydroxyethyl)-N-phenyl-benzeneacetamide]
DCT protein level [1]: did not significantly attenuate the increase
MITF protein expression [1]: not significantly affected
TRP1 (TYRP1) protein level [1]: did not significantly attenuate the increase
TYR protein level [1]: did not significantly attenuate the increase
copper ions chelated [2]: 27%
IC50 ([3]; HEK293-TYR cell-free extract, L-tyrosine plus L-DOPA): 1100 nM
human TYR inhibitory effect ([3]; each drug at 1.0 μM, library screening): potent TYR inhibitory effects
intracellular melanin content, normalized for total cellular protein ([4]; cell extracts): suppressed by K8 in a dose-dependent manner
extracellular melanin content, normalized for total cellular protein ([4]; conditioned medium): suppressed by K8 in a dose-dependent manner
